Assay [1] can be described thus: Displacement of [35S]TBPS from GABAA receptor in rat brain membrane. In kind it is cell membranes. For orientation: In a radioligand displacement assay an active substance lowers the binding of a labelled ligand.
For assay [2], the system named is Oocyte. As to the kind of experiment: Activity at rat GABAA alpha-1-beta-2-gamma-2L receptor expressed in Xenopus lavies oocytes assessed as ratio of effect on current at 10 uM drug to absence of compound by electrophysiology method. In kind it is cell-based.
Assay [3] has as its system Xenopus laevis. The experiment in a line: Anesthetic effect on Xenopus lavies tadpole assessed as loss of swimming reflex at 10 uM. In kind it is functional, organism-based.
Assay [4] relates to Xenopus laevis. As to the kind of experiment: Anesthetic effect on Xenopus lavies tadpole assessed as loss of righting reflex. Type of assay: functional.
Assay [5] concerns Oocyte. The experiment in a line: Activity at rat GABAA alpha-1-beta-2-gamma-2L receptor expressed in Xenopus laevis oocytes assessed as gating effect at 10 uM by electrophysiology method. In kind it is cell-based.
For assay [6], the system named is Oocyte. As to the kind of experiment: Activity at rat GABAA alpha-1-beta-2-gamma-2L receptor expressed in Xenopus lavies oocytes assessed as ratio of effect on current at 1 uM drug to absence of compound by electrophysiology method. Type of assay: cell-based.
In assay [7] the test system is Oocyte. The experiment in a line: Activity at rat GABAA alpha-1-beta-2-gamma-2L receptor expressed in Xenopus lavies oocytes assessed as ratio of effect on current at 0.1 uM drug to absence of compound by electrophysiology method. Type of assay: cell-based.
Assay [8] in a line: (§1) Activity at rat GABAA alpha-1-beta-2-gamma-2L receptor expressed in HEK293 cells assessed as macroscopic current amplitude by electrophysiological method. In kind it is cell-based.
Assay [9] concerns HEK293. The assay is described as §1. Type of assay: cell-based.
Assay [10] can be described thus: (§2) Activity at rat GABAA alpha-1Q241L/Y410F receptor mutant expressed in HEK293 cells assessed as macroscopic current amplitude by electrophysiological method. In kind it is cell-based.
Assay [11] relates to HEK293. The description is as §2. Type of assay: cell-based.
The subject of assay [12] is Xenopus laevis. The experiment in a line: Anesthetic effect on Xenopus lavies tadpole assessed as loss of swimming reflex. In kind it is functional.

The source made the active and inactive calls. No cut-off for these calls is given here.

Broadly, the IC50 is the midpoint of a concentration-inhibition curve. Low readings indicate greater potency, high ones weaker potency. One may read the EC50 as the midpoint of the concentration-response curve.

The compound `C[C@]12CC[C@@H]3C[C@H](CCO)CC[C@H]3[C@@H]1CCC2=O` registered an IC50 in [1] of 4170 nM. Also, the Ratio in the assay on Oocyte [2] amounted to 1.05; in the assay with Oocyte [5] it was 0.03; with Oocyte [6] it was 1.03; in the assay on Oocyte [7] it was 0.99. Also, the outcome in the assay with Xenopus laevis [3] was inactive. The ED50 with Xenopus laevis [4] is 16400 nM.
The compound `C[C@]12CC[C@@H](O)C[C@@H]1CC[C@@H]1[C@@H]2CC[C@]2(C)C(=O)CC[C@@H]12` [ANDROSTERONE] returned an IC50 in assay [1] of 410 nM. In addition, the Ratio came out at 5.44 in the assay on Oocyte [2], 0.02 in the assay with Oocyte [5], 1.41 in the assay with Oocyte [6] and 0.97 in the assay on Oocyte [7]. Also, the outcome in the assay with Xenopus laevis [3] was inactive. Moreover, the ED50 in the assay on Xenopus laevis [4] was 3380 nM.
As to `C[C@]12C[C@H]3CC[C@@H]4C[C@@H](O)CC[C@H]4[C@@H]3C[C@@H]1CCC2=O`, in [1], the IC50 was determined as 1440 nM. The Ratio worked out at 6.14 in the assay with Oocyte [2], 0.05 in the assay on Oocyte [5], 1.32 with Oocyte [6] and 0.92 in the assay on Oocyte [7]. Further, the outcome in the assay with Xenopus laevis [3] was inactive. In the assay on Xenopus laevis [4], the ED50 was 3170 nM.
Consider `C[C@]12C[C@H]3CC[C@@H]4C[C@@H](O)CC[C@H]4[C@@H]3C[C@@H]1CC[C@@]21CO1`, for which the IC50 in [1] was determined as 40 nM. Moreover, the Ratio with Oocyte [2] turned out to be 29.7; in the assay on Oocyte [5], 0.15; in the assay with Oocyte [6], 15.7; in the assay on Oocyte [7], 2.16. Further, the EC50 in assay [8] turned out to be 340 nM; in assay [10], 130 nM. Besides, the values for the Activity in the assay with HEK293 [9] and in the assay on HEK293 [11] were 262% and 220%, respectively. Moreover, the figures for the ED50 in the assay with Xenopus laevis [4] and with Xenopus laevis [12] were 200 nM and 870 nM, respectively.
The compound `C[C@]12CC[C@@H]3C[C@H](CCO)CC[C@H]3[C@@H]1CC[C@@]21CO1` registered an IC50 in assay [1] of 1580 nM. Further, the Ratio was 20 in the assay with Oocyte [2], 0.04 in the assay with Oocyte [5], 4.11 with Oocyte [6] and 1.1 in the assay on Oocyte [7]. In addition, the ED50 in the assay with Xenopus laevis [4] stood at 3170 nM; in the assay on Xenopus laevis [12], 5480 nM.
`C[C@]12CC[C@@H](O)C[C@@H]1CC[C@@H]1[C@@H]2CC[C@@]2(C)[C@H]1CC[C@@]21CO1` gave an IC50 in assay [1] of 110 nM. In addition, the Ratio turned out to be 33.7 in the assay on Oocyte [2], 0.22 with Oocyte [5], 21.9 in the assay on Oocyte [6] and 3.11 with Oocyte [7]. Further, the EC50 was 440 nM in assay [8] and 130 nM in [10]. Further, the Activity with HEK293 [9] amounted to 269%; in the assay on HEK293 [11] it was 251%. Besides, the ED50 came out at 1350 nM in the assay with Xenopus laevis [4] and 2760 nM with Xenopus laevis [12].
Compound `C[C@]12C[C@H]3C[C@H]4CC[C@@H](O)C[C@@H]4C[C@@H]3C[C@@H]1CCC2=O` registered an IC50 in [1] of 250 nM. Moreover, the Ratio was found to be 28.4 with Oocyte [2], 0.28 with Oocyte [5], 5.03 with Oocyte [6] and 1.1 in the assay on Oocyte [7]. Besides, the figures for the ED50 in the assay with Xenopus laevis [4] and in the assay with Xenopus laevis [12] were 1860 nM and 5480 nM, respectively.
In assay [1], `C[C@]12C[C@H]3CC[C@H](CCO)C[C@@H]3C[C@@H]1CCC2=O` returned an IC50 of 5010 nM. Moreover, the Ratio with Oocyte [2] was 2.42; in the assay on Oocyte [5], -0.02; in the assay on Oocyte [6], 1; in the assay on Oocyte [7], 1. For the same compound, the outcome in the assay on Xenopus laevis [3] was inactive. The ED50 in the assay on Xenopus laevis [4] amounted to 4010 nM.
In the case of `C[C@]12C[C@H]3C[C@H]4CC[C@@H](O)C[C@@H]4C[C@@H]3C[C@@H]1CC[C@@]21CO1`, in [1], the IC50 worked out at 60 nM. In addition, the Ratio is 26.3 in the assay with Oocyte [2], 0.16 in the assay on Oocyte [5], 10.8 in the assay with Oocyte [6] and 1.53 in the assay on Oocyte [7]. Besides, the EC50 was found to be 410 nM in assay [8] and 390 nM in assay [10]. Moreover, the Activity was 294% in the assay on HEK293 [9] and 237% in the assay with HEK293 [11]. For the same compound, the figures for the ED50 in the assay on Xenopus laevis [4] and in the assay with Xenopus laevis [12] were 480 nM and 1730 nM, respectively.
Take `C[C@]12C[C@H]3CC[C@H](CCO)C[C@@H]3C[C@@H]1CC[C@@]21CO1`: the IC50 in [1] was 1170 nM. Besides, the Ratio with Oocyte [2] was 5.37; in the assay on Oocyte [5] it was 0.03; in the assay on Oocyte [6] it was 1.54; in the assay with Oocyte [7], 0.86. Also, the result in the assay on Xenopus laevis [3] was inactive. Besides, the ED50 with Xenopus laevis [4] was 3460 nM.

The values are drawn from ChEMBL document CHEMBL1143225, “Neurosteroid analogues. 14. Alternative ring system scaffolds: GABA modulatory and anesthetic actions of cyclopenta[b]phenanthrenes and cyclopenta[b]anthracenes” (J Med Chem, 2008).
